Experimental data from patent US7553861B2, “Dipeptidyl peptidase-IV inhibitors” (Alantos Pharmaceuticals Holding, Inc., priority 2005, dated 2009).

biological target: T1, DPP-IV (Homo sapiens, UniProt P27487); assay: Assay for determining DP-IV inhibition (fluorometric, Gly-Pro-AMC substrate); type: biochemical; conditions: Inhibition of DPP-IV, K(i) calculated from IC(50) with IC(50)=K(i)(1+[S]/Km), pH 8.0
T1 construct: purchased R&D Systems GmbH, Germany
Method: The inhibitory activity of compounds against DPP-IV can be determined by in vitro assay systems, which are themselves well established in the art. The assay results given in Table 5 were obtained according to the following method, employing a modified version of the assay described by Leiting et al., in an article entitled “Catalytic properties and inhibition of proline-specific dipeptidyl peptidases II, IV and VII” in Biochem. J. Vol. 371, pages 525-532 (2003):
DPP-IV activity was determined fluorometrically with Gly-Pro-AMC (where AMC stands for 7-amido-4-methylcoumarin, Bachem AG, Switzerland) as substrate. The reaction mixture contained 10 μl of 1 ng/μl DPP-IV (R&D Systems GmbH, Germany) and 80 μl of 25 mM Tris/HCl buffer, pH 8.0. Compounds were supplied as DMSO stock solutions and diluted in assay buffer to a maximal DMSO concentration of 1% in the assay. Prior to start of the reaction, the mixture was incubated for 30 min at room temperature. The reaction was started by addition of 10 μl of 100 μM substrate solution.
The fluorescence intensity was measured at excitation and emission wavelengths of 355 and 460 nm, respectively, in a FluoStar Galaxy Multiwell Plate (BMG Labtech, Germany). Fluorescence was determined 3 and 4 minutes after start of reaction and increase in fluorescence was used for determination of enzymatic activity. IC(50) values of tested compounds were determined via plotting enzymatic activity versus concentration of test compound and determining the concentration of test compound which yields a 50% inhibition of enzymatic activity.
K(i) values were calculated using the Michaelis-Menten equation for competitive inhibition: IC(50)=K(i)(1+[S]/Km)

T1 sequence (P27487 whole entry): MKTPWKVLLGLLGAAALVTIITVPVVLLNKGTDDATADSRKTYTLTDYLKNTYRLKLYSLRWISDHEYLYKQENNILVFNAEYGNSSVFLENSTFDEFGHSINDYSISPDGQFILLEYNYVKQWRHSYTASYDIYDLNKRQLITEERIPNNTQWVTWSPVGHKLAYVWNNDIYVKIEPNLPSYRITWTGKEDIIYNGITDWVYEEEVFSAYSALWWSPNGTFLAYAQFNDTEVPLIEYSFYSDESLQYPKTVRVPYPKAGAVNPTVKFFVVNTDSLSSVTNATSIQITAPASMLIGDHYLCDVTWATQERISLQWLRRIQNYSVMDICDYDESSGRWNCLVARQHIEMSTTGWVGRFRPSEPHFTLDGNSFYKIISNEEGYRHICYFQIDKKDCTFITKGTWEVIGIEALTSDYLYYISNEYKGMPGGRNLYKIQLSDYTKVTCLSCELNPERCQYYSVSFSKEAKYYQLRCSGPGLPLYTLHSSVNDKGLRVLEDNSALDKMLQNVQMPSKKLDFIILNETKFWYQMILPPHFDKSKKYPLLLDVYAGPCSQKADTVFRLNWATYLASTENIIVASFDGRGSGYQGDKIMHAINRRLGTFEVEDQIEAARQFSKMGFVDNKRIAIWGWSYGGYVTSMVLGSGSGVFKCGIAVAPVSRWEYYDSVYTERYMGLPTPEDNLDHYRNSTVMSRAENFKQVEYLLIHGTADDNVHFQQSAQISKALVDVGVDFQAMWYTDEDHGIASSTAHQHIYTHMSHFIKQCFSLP

Row | Ki | Structure (SMILES)
1 | 51 to 500 nM | CC(C)(C)NC(=O)N1C[C@@H]2C[C@H]1C(=O)N2C[C@H](N)C(=O)N1CCC[C@H]1C#N [Example 75]
2 | 51 to 500 nM | N#C[C@@H]1CCCN1C(=O)CNCCNC1c2ccccc2CCc2ccccc21 [Example 1]
3 | < 6 nM | N#Cc1ccc(CN2C(=O)[C@@H]3CC2CN3C[C@H](N)C(=O)N2CCC[C@H]2C#N)cc1 [Example 55]
4 | 6 to 50 nM | N#C[C@@H]1CCCN1C(=O)[C@@H](N)CN1C(=O)[C@@H]2C[C@H]1CN2C(=O)c1cccs1 [Example 69]
5 | 6 to 50 nM | N#C[C@@H]1CCCN1C(=O)[C@@H](N)CN1C(=O)[C@@H]2C[C@H]1CN2C(=O)OCC1c2ccccc2-c2ccccc21 [Example 73]
6 | < 6 nM | N#C[C@@H]1CCCN1C(=O)[C@@H](N)CN1CC2C[C@H]1C(=O)N2Cc1cc(F)cc(F)c1 [Example 51]
7 | < 6 nM | N#C[C@@H]1CCCN1C(=O)CNCCC1(C(N)=O)c2ccc(C(N)=O)cc2CCc2ccc(F)cc21 (stereo partly drawn) [Example 22]
8 | 6 to 50 nM | N#C[C@@H]1CCCN1C(=O)[C@@H](N)CN1C(=O)[C@@H]2C[C@H]1CN2S(=O)(=O)c1cccc(F)c1 [Example 65]
9 | 51 to 500 nM | N#C[C@@H]1CCCN1C(=O)CNC1CCN(C2c3ccccc3CCc3ccccc32)C1 (stereo partly drawn) [Example 13]
10 | < 6 nM | N#C[C@@H]1CCCN1C(=O)[C@@H](N)CN1C[C@@H]2C[C@H]1C(=O)N2Cc1c(Cl)cccc1Cl [Example 49]
11 | < 6 nM | N#C[C@@H]1C[C@@H]2C[C@@H]2N1C(=O)[C@@H](N)CN1C[C@@H]2C[C@H]1C(=O)N2Cc1cccc(F)c1 [Example 64]
12 | < 6 nM | N#C[C@@H]1C[C@@H]2C[C@@H]2N1C(=O)CNCCC1(c2nn[nH]n2)c2ccc(C(N)=O)cc2CCc2cc(C(N)=O)ccc21 [Example 47]

The remaining lines, values behind:

Row | Structure (SMILES) | Ki
13 | C[C@@H](CC1(c2nn[nH]n2)c2ccc(C(=O)N3CCOCC3)cc2CCc2cc(C(=O)N3CCOCC3)ccc21)NCC(=O)N1CCC[C@H]1C#N [Example 33] | < 6 nM
14 | C[C@@H](CC1(c2nn[nH]n2)c2ccc(C(=O)O)cc2CCc2cc(C(=O)O)ccc21)NCC(=O)N1CCC[C@H]1C#N [Example 44] | < 6 nM
15 | CN1C(=O)c2ccccc2C(CCNCC(=O)N2CCC[C@H]2C#N)(c2nn[nH]n2)c2ccccc21 (stereo partly drawn) [Example 46] | 500 to 30000 nM
16 | N#C[C@@H]1CCCN1C(=O)CNCCC1(c2nn[nH]n2)c2ccc(C(N)=O)cc2CCc2cc(C(N)=O)ccc21 [Example 34] | < 6 nM
17 | N#C[C@@H]1CCCN1C(=O)CNCCC1(c2nn[nH]n2)c2ccc(Cl)cc2CCc2cc(Cl)ccc21 [Example 25] | 6 to 50 nM
18 | CNC(=O)c1ccc2c(c1)CCc1cc(C(=O)NC)ccc1C2(C[C@H](C)NCC(=O)N1CCC[C@H]1C#N)c1nn[nH]n1 [Example 28] | < 6 nM
19 | N#C[C@@H]1CCCN1C(=O)CNCCCN1c2ccccc2CCc2ccccc21 [Example 9] | 51 to 500 nM
20 | CN(C)C(=O)c1ccc2c(c1)CCc1cc(C(=O)N(C)C)ccc1C2(CCNCC(=O)N1CCC[C@H]1C#N)c1nn[nH]n1 [Example 36] | 6 to 50 nM
21 | N#C[C@@H]1CCCN1C(=O)CNCCC1(C#N)c2ccccc2CCc2ccccc21 [Example 16] | 51 to 500 nM
